The experiment deals with GLP-1R (Homo sapiens, UniProt P43220). Put plainly: GLP-1R Activation - cAMP Assay. The experiment is classed as cell-based. The following applies: each compound run on one of the two cAMP assays (Assay 1 or Assay 2, not specified). Summed up:
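CHO cells stably expressing GLP-1R, plated at 1,000 cells/well overnight, then equilibrated 1 h in HBSS with 20 mM Hepes and 0.1% BSA. Agonist added as 10-point dose response for 30 min at 37 °C. cAMP measured by HTRF (Cisbio Gs Dynamic kit); EC50 from sigmoidal fit.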
A general note: cAMP levels reflect the balance of adenylyl cyclase and phosphodiesterase activity.

The mark [1] stands for this setting: cAMP increase in CHO cells stably expressing GLP-1R.

Chain of GLP-1R (P43220 24-463): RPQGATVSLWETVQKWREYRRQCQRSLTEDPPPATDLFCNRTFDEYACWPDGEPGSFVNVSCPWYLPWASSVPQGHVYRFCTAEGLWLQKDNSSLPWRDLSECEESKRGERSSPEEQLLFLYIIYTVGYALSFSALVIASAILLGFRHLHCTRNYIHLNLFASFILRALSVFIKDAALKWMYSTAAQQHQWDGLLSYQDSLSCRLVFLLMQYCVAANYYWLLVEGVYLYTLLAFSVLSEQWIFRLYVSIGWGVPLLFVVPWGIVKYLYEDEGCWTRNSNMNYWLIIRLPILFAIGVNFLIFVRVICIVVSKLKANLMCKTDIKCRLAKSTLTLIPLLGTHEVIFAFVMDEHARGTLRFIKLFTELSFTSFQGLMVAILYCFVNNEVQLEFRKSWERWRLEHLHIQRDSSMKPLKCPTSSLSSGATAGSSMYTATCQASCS

Turning to `O=C(O)c1ccc2nc(Cc3cc(F)c(-c4cccc(OCc5ccc(Cl)cc5F)n4)cc3F)n(C3COC4CC3C4)c2c1` (racemic) [Example 407, 1-((4R)-2-oxabicyclo[3.1.1]heptan-4-yl)-2-(4-(6-((4-chloro-2-fluorobenzyl)oxy)pyridin-2-yl)-2,5-difluorobenzyl)-1H-benzo[d]imidazole-6-carboxylic acid], the EC50 (commonly the concentration that produces a half-maximal response) under setting [1] was found to be 0.421 nM.
Under setting [1], `CO[C@@H]1COCC1n1c(Cc2cc(F)c(-c3cccc(OCc4ccc(C#N)cc4F)n3)cc2F)nc2c(F)cc(C(=O)O)cc21` (single isomer, unassigned) [Example 239] returned an EC50 of 0.04 nM.
Regarding `CC1(C)COC[C@H]1n1c(Cc2cc(F)c(-c3ccc(F)c(OCc4ccc(Cl)cc4)n3)cc2F)nc2c(Cl)cc(C(=O)O)cc21` [Example 441, (S)-4-chloro-2-(4-(6-((4-chlorobenzyl)oxy)-5-fluoropyridin-2-yl)-2,5-difluorobenzyl)-1-(4,4-dimethyltetrahydrofuran-3-yl)-1H-benzo[d]imidazole-6-carboxylic acid], it took 0.722 nM to reach a half-maximal effect under setting [1] (EC50).
Compound `CC1(C)COC[C@H]1n1c(Cc2cc(F)c(-c3cccc(OCc4cnc(-n5ccnn5)cc4Cl)n3)cc2F)nc2ccc(C(=O)O)cc21` [Example 118, (S)-2-(4-(6-((4-chloro-6-(1H-1,2,3-triazol-1-yl)pyridin-3-yl)methoxy)pyridin-2-yl)-2,5-difluorobenzyl)-1-(4,4-dimethyltetrahydrofuran-3-yl)-1H-benzo[d]imidazole-6-carboxylic Acid] displayed an EC50 under setting [1] of 0.053 nM.
With `N#Cc1ccc(COc2cccc(-c3cc(F)c(Cc4nc5ccc(C(=O)O)cc5n4C4CCS(=O)(=O)C4)cc3F)n2)c(F)c1` (stereo not shown) [Example 81, 2-(4-(6-((4-cyano-2-fluorobenzyl)oxy)pyridin-2-yl)-2,5-difluorobenzyl)-1-(1,1-dioxidotetrahydrothiophen-3-yl)-1H-benzo[d]imidazole-6-carboxylic Acid], the 50% effective concentration (EC50) under setting [1] was determined as 40.9 nM. Compared with the last compound, the EC50 is about 770-fold higher.
Take `COCCn1c(Cc2cc(F)c(-c3cccc(OCc4cnc(-n5nc6c(n5)CCCC6)cc4Cl)n3)cc2F)nc2ccc(C(=O)O)cc21` [Example 567, 2-(4-(6-((4-chloro-6-(4,5,6,7-tetrahydro-2H-benzo[d][1,2,3]triazol-2-yl)pyridin-3-yl)methoxy)pyridin-2-yl)-2,5-difluorobenzyl)-1-(2-methoxyethyl)-1H-benzo[d]imidazole-6-carboxylic acid]: the EC50 under setting [1] amounted to 100 nM. This EC50 lies about 2.4-fold higher than the previous one.
Turning to `Cc1cc(Cc2nc3ccc(C(=O)O)cc3n2[C@@H]2COCC2(C)C)c(F)cc1-c1cccc(OCc2ccc(Cl)cc2F)n1` [Example 280, (S)-2-(4-(6-((4-chloro-2-fluorobenzyl)oxy)pyridin-2-yl)-2-fluoro-5-methylbenzyl)-1-(4,4-dimethyltetrahydrofuran-3-yl)-1H-benzo[d]imidazole-6-carboxylic acid], under setting [1], the EC50 was determined as 0.165 nM.
The same measure, in the same setting: then `CC1(C)COC[C@H]1n1c(Cc2cc(F)c(-c3cccc(OCc4ncc(Cl)cc4F)n3)cc2F)nc2c(F)cc(C(=O)O)cc21` [Example 287, (S)-2-(4-(6-((5-chloro-3-fluoropyridin-2-yl)methoxy)pyridin-2-yl)-2,5-difluorobenzyl)-1-(4,4-dimethyltetrahydrofuran-3-yl)-4-fluoro-1H-benzo[d]imidazole-6-carboxylic acid], with 0.051 nM; and `CC1(C)COCC1n1c(Cc2cc(F)c(-c3cccc(OCc4ccc(C#N)cc4F)n3)cc2F)nc2ccc(C(=O)O)c(F)c21` (stereo not shown) [Example 166, 2-(4-(6-((4-cyano-2-fluorobenzyl)oxy)pyridin-2-yl)-2,5-difluorobenzyl)-1-(4,4-dimethyltetrahydrofuran-3-yl)-7-fluoro-1H-benzo[d]imidazole-6-carboxylic Acid], with 0.222 nM.
Still for that read-out and setting: in the case of `CC1(C)COC[C@H]1n1c(Cc2cc(F)c(-c3cccc(OCc4cc(F)c(Cl)cc4F)n3)cc2F)nc2ccc(C(=O)O)cc21` [Example 490, (S)-2-(4-(6-((4-chloro-2,5-difluorobenzyl)oxy)pyridin-2-yl)-2,5-difluorobenzyl)-1-(4,4-dimethyltetrahydrofuran-3-yl)-1H-benzo[d]imidazole-6-carboxylic acid] it was 0.182 nM.
Where the note is “[…]”, `CO[C@H]1CN(C(C)=O)C[C@@H]1n1c(Cc2cc(F)c(-c3cccc(OCc4ccc(C#N)cc4F)n3)cc2F)nc2ccc(C(=O)O)cc21` [Example 16, 1-((3S,4S)-1-acetyl-4-methoxypyrrolidin-3-yl)-2-(4-(6-((4-cyano-2-fluorobenzyl)oxy)pyridin-2-yl)-2,5-difluorobenzyl)-1H-benzo[d]imidazole-6-carboxylic Acid] came in with an EC50 of 4800 nM.
Turning to `CO[C@@H](C)Cn1c(Cc2cc(F)c(-c3cccc(OCc4ccc(C#N)cc4F)n3)cc2F)nc2c(F)cc(C(=O)O)cc21` [Example 518, (S)-2-(4-(6-((4-cyano-2-fluorobenzyl)oxy)pyridin-2-yl)-2,5-difluorobenzyl)-4-fluoro-1-(2-methoxypropyl)-1H-benzo[d]imidazole-6-carboxylic acid], the midpoint of the response under setting [1], the EC50, lay at 0.887 nM.
Under setting [1], `COCCn1c(Cc2cc(F)c(-c3cccc(OCc4ccc(C#N)cc4)n3)cc2F)nc2ccc(C(=O)O)c(F)c21` [Example 375, 2-(4-(6-((4-cyanobenzyl)oxy)pyridin-2-yl)-2,5-difluorobenzyl)-7-fluoro-1-(2-methoxyethyl)-1H-benzo[d]imidazole-6-carboxylic acid] gave an EC50 of 0.272 nM.
Consider `Cc1cc(Cc2nc3ccc(C(=O)O)cc3n2[C@@H]2COCC2(C)C)c(Cl)cc1-c1cccc(OCc2cnc(-n3ccnn3)cc2Cl)n1` [Example 156, (S)-2-(2-chloro-4-(6-((4-chloro-6-(1H-1,2,3-triazol-1-yl)pyridin-3-yl)methoxy)pyridin-2-yl)-5-methylbenzyl)-1-(4,4-dimethyltetrahydrofuran-3-yl)-1H-benzo[d]imidazole-6-carboxylic Acid], for which, under setting [1], the EC50 was 0.064 nM.
With `COC[C@@]1(C)COCC1n1c(Cc2cc(F)c(-c3cccc(OCc4ccc(Cl)cc4F)n3)cc2F)nc2ccc(C(=O)O)cc21` (single isomer, unassigned) [Example 547], the EC50 under setting [1] was 0.024 nM.
The compound `CC1(C)COC[C@H]1n1c(Cc2cc(F)c(-c3cccc(OCc4ccc(C#N)c(F)c4F)n3)cc2F)nc2ccc(C(=O)O)cc21` [Example 492, (S)-2-(4-(6-((4-cyano-2,3-difluorobenzyl)oxy)pyridin-2-yl)-2,5-difluorobenzyl)-1-(4,4-dimethyltetrahydrofuran-3-yl)-1H-benzo[d]imidazole-6-carboxylic acid] yielded an EC50 under setting [1] of 0.191 nM.
Regarding `Cc1cc(Cc2nc3ccc(C(=O)O)cc3n2[C@@H]2COCC2(C)C)c(Cl)cc1-c1ccc(F)c(OCc2ccc(C#N)cc2)n1` [Example 135, (S)-2-(2-chloro-4-(6-((4-cyanobenzyl)oxy)-5-fluoropyridin-2-yl)-5-methylbenzyl)-1-(4,4-dimethyltetrahydrofuran-3-yl)-1H-benzo[d]imidazole-6-carboxylic Acid], it took 0.361 nM to reach a half-maximal effect under setting [1] (EC50).
For the compound `CC1(C)COCC1n1c(Cc2cc(F)c(-c3cccc(OCc4cnc(-n5ccnc5)cc4Cl)n3)cc2F)nc2c(F)cc(C(=O)O)cc21` (stereo not shown) [Example 174, 2-(4-(6-((4-chloro-6-(1H-imidazol-1-yl)pyridin-3-yl)methoxy)pyridin-2-yl)-2,5-difluorobenzyl)-1-(4,4-dimethyltetrahydrofuran-3-yl)-4-fluoro-1H-benzo[d]imidazole-6-carboxylic Acid], the EC50 under setting [1] is 0.051 nM. Against the preceding compound, the EC50 is about 7.1-fold lower.
`N#Cc1ccc(COc2cccc(-c3cc(F)c(Cc4nc5ccc(C(=O)O)cc5n4[C@@H]4COC[C@@H]4CO)cc3F)n2)c(F)c1` (single isomer, unassigned) [Example 435] yielded an EC50 under setting [1] of 0.06 nM. This EC50 and that of the compound before are within 1.5-fold of each other.
Take `CC1(C)COC[C@@H]1n1c(Cc2ccc(-c3cccc(OCc4ccc(C#N)cc4F)n3)cc2F)nc2ccc(C(=O)O)cc21` (single isomer, unassigned) [Example 380]: the EC50 under setting [1] was 0.096 nM.
Under setting [1], `CO[C@H]1COC[C@H]1n1c(Cc2cc(F)c(-c3cccc(OCc4ccc(Cl)cc4F)n3)cc2F)nc2ccc(C(=O)O)cc21` [Example 533, 2-(4-(6-((4-chloro-2-fluorobenzyl)oxy)pyridin-2-yl)-2,5-difluorobenzyl)-1-((3R,4R)-4-methoxytetrahydrofuran-3-yl)-1H-benzo[d]imidazole-6-carboxylic acid] had a 50% effective concentration (EC50) of 0.5 nM.
As for `Cc1cc(Cc2nc3c(F)cc(C(=O)O)cc3n2[C@@H]2COCC2(C)C)c(Cl)cc1-c1ccnc(OCc2ccc(C#N)cc2F)n1` [Example 319, (S)-2-(2-chloro-4-(2-((4-cyano-2-fluorobenzyl)oxy)pyrimidin-4-yl)-5-methylbenzyl)-1-(4,4-dimethyltetrahydrofuran-3-yl)-4-fluoro-1H-benzo[d]imidazole-6-carboxylic acid], the response under setting [1] was half-maximal at 0.346 nM (EC50). This EC50 and that of the compound before are within 1.5-fold of each other.
`CC1(C)COC[C@H]1n1c(Cc2cc(F)c(-c3cccc(OCc4c(F)cc(Cl)cc4F)n3)cc2F)nc2ccc(C(=O)O)cc21` [Example 453, (S)-2-(4-(6-((4-chloro-2,6-difluorobenzyl)oxy)pyridin-2-yl)-2,5-difluorobenzyl)-1-(4,4-dimethyltetrahydrofuran-3-yl)-1H-benzo[d]imidazole-6-carboxylic acid] showed an EC50 under setting [1] of 0.527 nM.
Under setting [1], `COCCn1c(Cc2cc(F)c(-c3cccc(OCc4ccc(-n5ccnn5)nc4)n3)cc2F)nc2c(F)cc(C(=O)O)cc21` [Example 221, 2-(4-(6-((6-(1H-1,2,3-triazol-1-yl)pyridin-3-yl)methoxy)pyridin-2-yl)-2,5-difluorobenzyl)-4-fluoro-1-(2-methoxyethyl)-1H-benzo[d]imidazole-6-carboxylic acid] showed an EC50 of 0.508 nM. The EC50 values of the last two compounds are within 1.5-fold of each other.
Where the note is “[…]”, `CC(C)(C)OC(=O)N[C@@H]1COC[C@@H]1n1c(Cc2cc(F)c(-c3cccc(OCc4ccc(C#N)cc4F)n3)cc2F)nc2ccc(C(=O)O)cc21` (racemic) [Example 72, 1-((3R,4S)-4-((tert-butoxycarbonyl)amino)tetrahydrofuran-3-yl)-2-(4-(6-((4-cyano-2-fluorobenzyl)oxy)pyridin-2-yl)-2,5-difluorobenzyl)-1H-benzo[d]imidazole-6-carboxylic Acid] came in with a half-maximal effective concentration (EC50) of 37 nM.

These data come from US12570642B2, “GLP-IR modulating compounds” (Gilead Sciences, Inc., priority 2021, dated 2026).
